The term log P denotes the decadic logarithm of the partition coefficient of the neutral form, usually between octanol and water.

The values below come from patent publication US10150737B2, “Compounds for controlling arthropods” (priority 2013, dated 2018).

Data set [1] has as its system Ctenocephalides felis. In words: Ctenocephalides felis - in vitro contact tests with adult cat fleas. It is filed as in vivo. Conditions: application rate 5 μg/cm2 (=500 g/ha); after 48 h; fleas dead or moribund. In short, it runs like this: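 Tubes coated with compound in acetone (250 μl of 900 ppm solution gives 5 μg/cm^2 on 44.7 cm^2), solvent evaporated, then 5–10 adult fleas added and kept horizontal at room temperature and ambient humidity. After 48 h, dead or moribund (motionless/uncoordinated) fleas scored as % efficacy.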

A further data set deals with Boophilus microplus. In words: Boophilus microplus - injection test. It is filed as in vivo. The conditions noted are these: application rate 20 μg/animal, injection into engorged adult female ticks, after 7 days. In short, it runs like this:
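Active ingredient in DMSO, 1 μl injected into the abdomen of 5 engorged adult female ticks, then held in a climate-controlled room. Efficacy scored after 7 days from laying of fertile eggs, with non-fertile-looking eggs kept about 42 days for larval hatch; 100% means no fertile eggs.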

In another data set the test system is Lucilia cuprina. In words: Lucilia cuprina test. Conditions: application rate 100 ppm; L1 larvae; after 2 days. It is filed as in vivo. In short, it runs like this:
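About 20 L1 larvae placed on minced horsemeat treated with compound, formulated in DMSO and diluted with water to test concentration. Kill in % scored after 2 days (100% = all larvae dead, 0% = none).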

The next data set deals with Spodoptera frugiperda. In words: Spodoptera frugiperda - spray test. It is filed as in vivo. The conditions noted are these: caterpillars on maize leaf discs, after 7 days. An outline of the steps:
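Maize leaf discs sprayed with compound formulated in acetone/DMF and diluted in water containing 1000 ppm alkylaryl polyglycol ether emulsifier, then infested with armyworm caterpillars after drying. Efficacy scored after 7 days as % caterpillars killed (100% all, 0% none).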

Another data set has as its system Phaedon cochleariae. In words: Phaedon cochleariae - spray test. Conditions: larvae on Chinese cabbage leaf discs, after 7 days. It is filed as in vivo. In short, it runs like this:
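Chinese cabbage leaf discs sprayed with compound formulated in acetone/DMF and water containing 1000 ppm emulsifier; once dry, infested with mustard beetle larvae. Efficacy (% larvae killed) scored after 7 days.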

For a further data set, the system named is Myzus persicae. In words: Myzus persicae - spray test. It is filed as in vivo. The conditions noted are these: application rate 100 g/ha; Chinese cabbage leaf discs; after 6 days. How it is done: Solvent: 78 parts by weight of acetone and 1.5 parts by weight of dimethylformamide
Emulsifier: alkylaryl polyglycol ether
To produce an appropriate active ingredient formulation, 1 part by weight of active ingredient is dissolved using the specified parts by weight of solvent and made up with water containing an emulsifier concentration of 1000 ppm until the desired concentration is attained. To produce further test concentrations, the preparation is diluted with emulsifier-containing water.
Discs of Chinese cabbage leaves (Brassica pekinensis) infested by all stages of the green peach aphid (Myzus persicae) are sprayed with an active ingredient formulation of the desired concentration.
After 6 days, efficacy in % is determined. 100% means that all the aphids have been killed; 0% means that none of the aphids have been killed.

Another data set has as its system Tetranychus urticae. The data set can be described thus: Tetranychus urticae - spray test, OP-resistant. It is filed as in vivo. The conditions noted are these: bean leaf discs, after 6 days. An outline of the steps: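 Compound dissolved in acetone/DMF, diluted with water containing 1000 ppm alkylaryl polyglycol ether emulsifier to test concentrations. Bean leaf discs infested with all stages of spider mites were sprayed; % kill determined after 6 days (100% = all mites dead, 0% = none).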

Data set [2] deals with Ctenocephalides felis. The data set can be described thus: Ctenocephalides felis - oral test. It is filed as in vivo. Conditions: application rate 100 ppm in citrated cattle blood; after 2 days. An outline of the steps:
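Compound in DMSO diluted into citrated cattle blood, fed through a parafilm membrane to about 20 unfed adult cat fleas. Kill in % scored after 2 days (100% = all dead).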

A short description of data set [3]: logP determination by HPLC on a reversed-phase column (C18). It is filed as physicochemical. The conditions noted are these: for logP^a): HPLC-MS method a); for log P: HPLC-MS.
Data set [4] concerns Boophilus microplus Parkhurst strain, SP-resistant. In words: Boophilus microplus - dip test. It is filed as in vivo. The conditions noted are these: application rate 100 ppm; dip of engorged adult female ticks; after 7 days. How it is done: Test animals: cattle ticks (Boophilus microplus) Parkhurst strain, SP-resistant
Solvent: dimethyl sulphoxide
10 mg of active ingredient are dissolved in 0.5 ml of dimethyl sulphoxide. For the purpose of producing a suitable formulation, the active ingredient solution is diluted with water to the concentration desired in each case.
This active ingredient formulation is pipetted into tubes. 8-10 adult engorged female cattle ticks (Boophilus microplus) are transferred into a further tube with holes. The tube is immersed into the active ingredient formulation, and all the ticks are completely wetted. After the liquid has run out, the ticks are transferred on filter discs into plastic dishes and stored in a climate-controlled room.
Efficacy is assessed after 7 days by laying of fertile eggs. Eggs which are not visibly fertile are stored in a climate-controlled cabinet until the larvae hatch after about 42 days. An efficacy of 100% means that none of the ticks has laid any fertile eggs; 0% means that all the eggs are fertile.

Another data set relates to Musca domestica. The data set can be described thus: Musca domestica test. It is filed as in vivo. Conditions: application rate 100 ppm; adult houseflies; after 2 days. In short, it runs like this:
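Percent kill of adult houseflies is recorded 2 days after exposure, where 100% denotes all flies dead and 0% none. Flies (10 per vessel) feed from a sponge carrying sugar solution and the aqueous-diluted DMSO formulation.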

Where [5] appears, read: reversed-phase column (C18), Table I-T3.

Regarding `Cc1cc(C(F)(C(F)(F)F)C(F)(F)F)cc(C)c1-n1cc(-c2cnc(C)c(C(=O)N(C)C3(C#N)CC3)c2)cn1` [I-T3-115], the efficacy with Ctenocephalides felis [1], in the data set on Spodoptera frugiperda (application rate 500 g/ha), in the data set with Phaedon cochleariae (application rate 500 g/ha), in the data set on Myzus persicae and with Tetranychus urticae (application rate 500 g/ha) was 100% in each case. The “efficacy (laying of fertile eggs)” value (in the data set on Boophilus microplus; in data set [4]) was 100% throughout. Moreover, the “efficacy (kill)” value with Lucilia cuprina, with Ctenocephalides felis [2] and in the data set on Musca domestica was 100% in each case. Moreover, the “logP^a)” value in data set [3] (reversed-phase column (C18)) is 3.8. Moreover, the “log P” value in data set [3] (setting [5]) worked out at 3.8.
For the compound `CCc1cc(C(F)(C(F)(F)F)C(F)(F)F)ccc1-n1cc(-c2ccc(Cl)c(C(=O)NC3CC3)c2)cn1` [I-T3-39], the “efficacy (laying of fertile eggs)” value (in the data set with Boophilus microplus; in data set [4]) was 100% each time. The “efficacy (kill)” value with Lucilia cuprina and in the data set on Ctenocephalides felis [2] was 100% each time. Moreover, the efficacy with Spodoptera frugiperda (application rate 100 g/ha) worked out at 100%; with Phaedon cochleariae (application rate 100 g/ha), 100%; with Myzus persicae, 90%; in the data set on Tetranychus urticae (application rate 100 g/ha), 100%. Further, the “logP^a)” value in data set [3] and in [3] (setting [5]) was 4.6 in each case.
In the case of `O=C(NC1CC1)c1cc(-c2cnn(-c3c(F)cc(C(F)(F)F)cc3F)c2)ccc1Cl` [I-T3-48, 2-chloro-N-cyclopropyl-5-[1-[2,6-difluoro-4-(trifluoromethyl)phenyl]pyrazol-4-yl]benzamide], the pest or weed control at 0.02 mg with Boophilus microplus (Rhipicephalus microplus, 168 h, read-out: efficacy (laying of fertile eggs)) was determined as 100%. In addition, the “efficacy (laying of fertile eggs)” value in [4] amounted to 100%. In addition, the “efficacy (kill)” value in the data set with Musca domestica turned out to be 100%.
`CN(C(=O)c1cc(-c2cnn(-c3c(Cl)cc(C(F)(C(F)(F)F)C(F)(F)F)cc3C(F)(F)F)c2)cnc1Cl)C1CC1` [I-T3-113]: the “efficacy (laying of fertile eggs)” value (in the data set with Boophilus microplus; in [4]) was 100% in each case. The “efficacy (kill)” value with Lucilia cuprina, with Ctenocephalides felis [2] and in the data set with Musca domestica was 100% in each case. For the same compound, the efficacy in the data set on Spodoptera frugiperda (application rate 500 g/ha), in the data set on Phaedon cochleariae (application rate 500 g/ha), in the data set on Myzus persicae and in the data set on Tetranychus urticae (application rate 500 g/ha) was 100% each time. Moreover, the “logP^a)” value in data set [3] (reversed-phase column (C18)) worked out at 4.0. The “log P” value in [3] (setting [5]) is 4.0.
Take `Cc1cc(C(F)(C(F)(F)F)C(F)(F)F)cc(C(F)(F)F)c1-n1cc(-c2cnc(C)c(C(=O)N(C)C3CC3)c2)cn1` [I-T3-118]: the efficacy came to 100% in the data set on Ctenocephalides felis [1]; 100% with Spodoptera frugiperda (application rate 500 g/ha); 100% with Phaedon cochleariae (application rate 500 g/ha); 100% in the data set with Myzus persicae; 90% with Tetranychus urticae (application rate 500 g/ha). The “efficacy (laying of fertile eggs)” value (in the data set with Boophilus microplus; in data set [4]) was 100% throughout. The “efficacy (kill)” value in the data set on Lucilia cuprina, in the data set with Ctenocephalides felis [2] and with Musca domestica was 100% throughout. Moreover, the “logP^a)” value in data set [3] (reversed-phase column (C18)) came out at 3.8. In [3] (setting [5]), the “log P” value came out at 3.8.
For the compound `Cc1ncc(-c2cnn(-c3c(Cl)cc(C(F)(C(F)(F)F)C(F)(F)F)cc3Cl)c2)cc1C(=O)N(C)C1CC1` [I-T3-133], the efficacy in the data set with Ctenocephalides felis [1], in the data set on Spodoptera frugiperda (application rate 100 g/ha), with Phaedon cochleariae (application rate 100 g/ha) and in the data set on Tetranychus urticae (application rate 100 g/ha) was 100% each time. Further, the “efficacy (laying of fertile eggs)” value (in the data set with Boophilus microplus; in data set [4]) was 100% throughout. The “efficacy (kill)” value in the data set on Lucilia cuprina, with Ctenocephalides felis [2] and in the data set on Musca domestica was 100% throughout. In addition, the “logP^a)” value in [3] (reversed-phase column (C18)) is listed as 3.7. In data set [3] (setting [5]), the “log P” value stood at 3.7.
